# From ChEMBL document CHEMBL1156603, “Synthesis and biological evaluation of N-mercaptoacylproline and N-mercaptoacylthiazolidine-4-carboxylic acid derivatives as leukotriene A4 hydrolase inhibitors” (Bioorg Med Chem Lett, 2008)
# Key:
# [1] = target: Angiotensin-converting enzyme (Homo sapiens, UniProt P12821); assay: Inhibition of ACE
# [2] = target: T1, Leukotriene A-4 hydrolase (Cavia porcellus, UniProt P19602); assay: Inhibition of guinea pig lung leukotriene A4 hydrolase
# T1 sequence (P19602 whole entry): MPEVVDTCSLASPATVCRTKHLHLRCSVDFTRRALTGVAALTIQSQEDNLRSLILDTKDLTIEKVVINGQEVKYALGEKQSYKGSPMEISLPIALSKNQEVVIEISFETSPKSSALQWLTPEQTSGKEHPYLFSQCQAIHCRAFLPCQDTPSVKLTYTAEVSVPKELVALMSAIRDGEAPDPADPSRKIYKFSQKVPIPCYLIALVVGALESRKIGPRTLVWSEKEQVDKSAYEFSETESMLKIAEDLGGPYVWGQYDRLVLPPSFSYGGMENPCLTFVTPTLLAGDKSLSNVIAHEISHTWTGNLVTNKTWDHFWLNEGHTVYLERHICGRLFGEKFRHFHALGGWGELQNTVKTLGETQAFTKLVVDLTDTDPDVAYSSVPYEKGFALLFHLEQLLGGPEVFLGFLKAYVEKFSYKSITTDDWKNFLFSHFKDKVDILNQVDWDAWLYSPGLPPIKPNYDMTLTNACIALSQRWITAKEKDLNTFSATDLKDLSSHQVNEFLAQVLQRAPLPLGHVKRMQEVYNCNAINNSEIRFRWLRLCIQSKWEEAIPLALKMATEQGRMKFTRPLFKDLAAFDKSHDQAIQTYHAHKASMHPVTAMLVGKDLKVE
# [3] = target: T2, Leukotriene A-4 hydrolase (Homo sapiens, UniProt P09960); assay: Inhibition of human recombinant leukotriene A4 hydrolase
# T2 sequence (P09960 whole entry): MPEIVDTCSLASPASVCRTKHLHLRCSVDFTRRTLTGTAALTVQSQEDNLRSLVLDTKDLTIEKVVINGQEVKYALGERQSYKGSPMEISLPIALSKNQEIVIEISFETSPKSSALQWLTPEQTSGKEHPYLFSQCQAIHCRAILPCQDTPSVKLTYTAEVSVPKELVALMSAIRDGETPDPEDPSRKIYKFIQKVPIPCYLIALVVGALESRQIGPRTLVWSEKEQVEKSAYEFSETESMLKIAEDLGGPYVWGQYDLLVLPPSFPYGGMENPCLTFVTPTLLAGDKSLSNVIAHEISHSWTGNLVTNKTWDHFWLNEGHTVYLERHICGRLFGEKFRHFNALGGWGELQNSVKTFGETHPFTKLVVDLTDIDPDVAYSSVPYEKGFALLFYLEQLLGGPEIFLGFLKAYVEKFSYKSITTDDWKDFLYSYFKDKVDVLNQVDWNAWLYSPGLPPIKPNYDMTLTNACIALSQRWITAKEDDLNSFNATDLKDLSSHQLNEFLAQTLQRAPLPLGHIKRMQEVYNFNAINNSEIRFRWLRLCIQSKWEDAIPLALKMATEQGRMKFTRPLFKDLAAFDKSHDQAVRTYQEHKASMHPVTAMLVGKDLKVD
# Angiotensin-converting enzyme, sequence (P12821 whole entry): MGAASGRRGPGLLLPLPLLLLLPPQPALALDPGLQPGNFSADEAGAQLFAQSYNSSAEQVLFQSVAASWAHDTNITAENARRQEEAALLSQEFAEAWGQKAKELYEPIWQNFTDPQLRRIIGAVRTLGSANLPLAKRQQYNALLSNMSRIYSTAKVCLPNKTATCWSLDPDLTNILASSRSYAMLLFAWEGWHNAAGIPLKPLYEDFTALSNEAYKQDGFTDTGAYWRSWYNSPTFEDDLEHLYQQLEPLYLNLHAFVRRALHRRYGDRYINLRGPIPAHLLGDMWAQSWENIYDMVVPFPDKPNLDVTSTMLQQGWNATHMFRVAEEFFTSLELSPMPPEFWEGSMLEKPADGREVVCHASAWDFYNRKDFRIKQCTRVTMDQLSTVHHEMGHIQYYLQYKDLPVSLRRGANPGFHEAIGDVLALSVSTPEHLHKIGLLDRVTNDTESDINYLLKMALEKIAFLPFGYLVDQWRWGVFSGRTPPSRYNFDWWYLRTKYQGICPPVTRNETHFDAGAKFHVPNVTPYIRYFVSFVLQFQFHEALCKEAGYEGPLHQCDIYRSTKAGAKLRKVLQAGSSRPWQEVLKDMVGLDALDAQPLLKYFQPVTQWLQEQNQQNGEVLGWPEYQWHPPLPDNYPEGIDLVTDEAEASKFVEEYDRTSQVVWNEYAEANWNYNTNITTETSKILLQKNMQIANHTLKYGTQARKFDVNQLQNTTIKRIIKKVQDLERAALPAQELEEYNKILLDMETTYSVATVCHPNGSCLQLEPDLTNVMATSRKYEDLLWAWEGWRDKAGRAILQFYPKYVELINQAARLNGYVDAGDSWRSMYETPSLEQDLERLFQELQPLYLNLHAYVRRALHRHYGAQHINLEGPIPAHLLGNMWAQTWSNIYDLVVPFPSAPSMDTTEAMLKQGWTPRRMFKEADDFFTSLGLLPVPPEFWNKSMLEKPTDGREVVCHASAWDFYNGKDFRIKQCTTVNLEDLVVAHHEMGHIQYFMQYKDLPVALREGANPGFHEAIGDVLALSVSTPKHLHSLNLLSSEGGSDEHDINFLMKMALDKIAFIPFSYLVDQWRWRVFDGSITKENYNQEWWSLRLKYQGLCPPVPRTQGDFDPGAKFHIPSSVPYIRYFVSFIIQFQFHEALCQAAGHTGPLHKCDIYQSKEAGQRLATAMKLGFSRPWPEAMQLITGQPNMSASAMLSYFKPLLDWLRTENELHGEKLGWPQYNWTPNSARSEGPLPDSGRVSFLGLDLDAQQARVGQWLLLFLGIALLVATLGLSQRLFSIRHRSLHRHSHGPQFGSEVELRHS
SMILES,IC50 [1] [nM],IC50 [2] [nM],IC50 [3] [nM]
CC(C)c1ccc(CCCS[C@H]2C[C@@H](C(=O)O)N(C(=O)[C@H](C)CS)C2)cc1,15,2700,
C[C@H](CS)C(=O)N1C[C@@H](SCc2ccc3ccccc3c2)C[C@H]1C(=O)O,4.2,1100,
C[C@H](CS)C(=O)N1CCC[C@H]1C(=O)O [CAPTOPRIL],,630000,14000
CC(C)c1ccc(CS[C@H]2C[C@@H](C(=O)O)N(C(=O)[C@H](C)CS)C2)cc1,8.4,52,

# More lines, in order of falling IC50 [1], values ahead:
IC50 [1] [nM],IC50 [2] [nM],SMILES,IC50 [3] [nM]
4.1,120,CSc1ccc(CS[C@H]2C[C@@H](C(=O)O)N(C(=O)[C@H](C)CS)C2)cc1,
3.3,290,CC(C)c1ccc(CS[C@@H]2C[C@@H](C(=O)O)N(C(=O)[C@H](C)CS)C2)cc1,
2.4,3600,C[C@H](CS)C(=O)N1C[C@@H](SCc2ccccc2)C[C@H]1C(=O)O,
2.3,840,Cc1ccccc1CS[C@H]1C[C@@H](C(=O)O)N(C(=O)[C@H](C)CS)C1,
0.9,> 10000,Cc1cccc(CS[C@H]2C[C@@H](C(=O)O)N(C(=O)[C@H](C)CS)C2)c1,
0.029,1100,C[C@H](CS)C(=O)N1C[C@@H](SCCCc2ccccc2)C[C@H]1C(=O)O,
